Reference: patent US20220064672A1, “ENGINEERED ONCOLYTIC VIRUSES EXPRESSING PD-L1 INHIBITORS AND USES THEREOF” (priority 2020, published 2022)
Read-outs that look alike come from different tables or passages of the source.

T1: H-2K^b (Mus musculus, UniProt P01901)
T1 sequence (P01901 22-369): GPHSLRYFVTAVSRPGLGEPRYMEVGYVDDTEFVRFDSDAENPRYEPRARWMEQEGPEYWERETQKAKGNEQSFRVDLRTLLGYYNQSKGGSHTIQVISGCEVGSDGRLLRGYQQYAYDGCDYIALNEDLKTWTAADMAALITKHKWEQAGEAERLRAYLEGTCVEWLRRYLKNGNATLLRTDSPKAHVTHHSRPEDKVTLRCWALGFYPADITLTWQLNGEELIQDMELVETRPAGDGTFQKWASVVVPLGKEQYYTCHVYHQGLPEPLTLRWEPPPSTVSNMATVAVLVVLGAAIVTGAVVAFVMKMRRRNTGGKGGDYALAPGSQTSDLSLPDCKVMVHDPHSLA
T1 sequence (P01887 21-119 partner): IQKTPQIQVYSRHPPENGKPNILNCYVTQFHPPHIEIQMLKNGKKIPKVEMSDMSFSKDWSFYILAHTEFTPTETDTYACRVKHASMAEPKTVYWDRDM

T2: H-2D^b (Mus musculus, UniProt P01899)
T2 sequence (P01899 25-362): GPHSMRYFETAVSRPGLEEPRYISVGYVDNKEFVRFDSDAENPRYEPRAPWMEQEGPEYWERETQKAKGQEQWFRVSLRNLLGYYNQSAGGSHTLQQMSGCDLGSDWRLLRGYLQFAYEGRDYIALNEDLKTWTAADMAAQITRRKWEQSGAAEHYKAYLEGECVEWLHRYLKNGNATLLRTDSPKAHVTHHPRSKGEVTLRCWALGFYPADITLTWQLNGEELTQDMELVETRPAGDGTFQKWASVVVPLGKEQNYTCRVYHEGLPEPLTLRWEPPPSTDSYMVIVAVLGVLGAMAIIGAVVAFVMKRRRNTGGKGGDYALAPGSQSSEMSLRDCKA
T2 sequence (P01887 21-119 partner): T1 sequence (P01887 21-119 partner)

B1: iPDL1 (murine soluble PD-1 extracellular domain fused with IgG1 Fc) (Fc fusion)
chain: LEVPNGPWRSLTFYPAWLTVSEGANATFTCSLSNWSEDLMLNWNRLSPSNQTEKQAAFCNGLSQPVQDARFQIIQLPNRHDFHMNILDTRRNDSGIYLCGAISLHPKAKIEESPGAELVVTERILETSTRYPSPSPKPEGRFQPRGPTIKPCPPCKCPAPNLLGGPSVFIFPPKIKDVLMISLSPIVTCVVVDVSEDDPDVQISWFVNNVEVHTAQTQTHREDYNSTLRVVSALPIQHQDWMSGKEFKCKVNNKDLPAPIERTISKPKGSVRAPQVYVLPPPEEEMTKKQVTLTCMVTDFMPEDIYVEWTNNGKTELNYKNTEPVLDSDGSYFMYSKLRVEKKNWVERNSYSCSVVHEGLHNHHTTKSFSRTPGK
notes: detection used anti-IgG2a-Fc / anti-mouse IgG; also called soluble PD-1-Fc; soluble PD-1-IgG Fc
B2: iPDL1: murine soluble PD-1 extracellular domain fused with IgG1 Fc as a PD-L1 inhibitor, SEQ ID NO:2 (protein)
chain: MWVRQVPWSFTWAVLQLSWQSGWLLEVPNGPWRSLTFYPAWLTVSEGANATFTCSLSNWSEDLMLNWNRLSPSNQTEKQAAFCNGLSQPVQDARFQIIQLPNRHDFHMNILDTRRNDSGIYLCGAISLHPKAKIEESPGAELVVTERILETSTRYPSPSPKPEGRFQPRGPTIKPCPPCKCPAPNLLGGPSVFIFPPKIKDVLMISLSPIVTCVVVDVSEDDPDVQISWFVNNVEVHTAQTQTHREDYNSTLRVVSALPIQHQDWMSGKEFKCKVNNKDLPAPIERTISKPKGSVRAPQVYVLPPPEEEMTKKQVTLTCMVTDFMPEDIYVEWTNNGKTELNYKNTEPVLDSDGSYFMYSKLRVEKKNWVERNSYSCSVVHEGLHNHHTTKSFSRTPGK
modifications: Mouse

How the values were obtained:
H-2K^b = target: T1, H-2K^b; details: MHC allele H-2K^b, cited from earlier work
PD-L1^+ tumor cells = target: T3, PD-L1^+ tumor cells (Homo sapiens, UniProt Q9NZQ7); assay type: cell-based; details: PD-L1-transduced 293T or K562, IFN-γ pre-stimulated H226 or U251
T3 construct: endogenous in cells; host or cells: IFN-γ-stimulated U251 or H226
T3 sequence (Q9NZQ7 19-290): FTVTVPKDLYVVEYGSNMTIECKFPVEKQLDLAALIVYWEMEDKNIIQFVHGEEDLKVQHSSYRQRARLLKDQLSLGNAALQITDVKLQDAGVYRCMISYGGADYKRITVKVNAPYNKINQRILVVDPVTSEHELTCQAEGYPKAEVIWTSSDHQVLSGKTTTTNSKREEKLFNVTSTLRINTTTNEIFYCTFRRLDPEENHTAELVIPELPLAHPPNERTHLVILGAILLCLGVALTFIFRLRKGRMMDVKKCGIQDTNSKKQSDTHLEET

[1] = test system: T-cells from healthy PBMCs with allogeneic mature DCs; assay type: cell-based, human; details: purified ihPDL1 at 0.01 μg/mL, 0.1 μg/mL, or 1 μg/mL
[2] = test system: K562/PD-L1, U251/PD-L1, H226/PD-L1 target cells; test: ADCC assay (Jurkat effector cells); assay type: cell-based, human; details: any of the PD-L1-expressed target cell lines
Protocol: ADCC assay: Purified ihPDL1 was analyzed with ADCC kit according to the manufacturer's instruction (Promega, Madison, Wis.).

PD-L1 [3] = target: PD-L1 (Homo sapiens, UniProt Q9NZQ7); test: Surface plasmon resonance (SPR)-binding assay; details: immobilized PD-L1-His tag protein
Chain of PD-L1 (Homo sapiens, UniProt Q9NZQ7) (Q9NZQ7 19-290): as above
Protocol: Surface plasmon resonance (SPR)-binding assays: The assays were carried out at 25° C. using a Biacore T100 (USC NanoBiophysics Center). CMS sensor chips were activated by a 7 min injection of a 1:1 mixture of N-hydroxysuccinimide and 1-ethyl-3-(3-dimethylaminopropyl) carbodiimide hydrochloride at a flow rate of 10 μL/min. The PD-L1-His tag protein was prepared at a concentration of 10 μg/mL in 10 mM acetate buffer, pH 4.0, and immobilized to the sensor chips by amine linkage, with the typical immobilization levels being 100 response units. For blocking sensor chips, 70 μL of 1M ethanolamine-HCl buffer, pH 8.5, was injected and the chips were further washed with 10 μL of 10 mM glycine-HCl buffer, pH 1.5. For analyzing the binding and equilibrium affinity of ihPDL1 or a-PD-L1 antibody (biolegend, cat 329702), 5 serial dilutions of ihPDL1 starting from 200 μg/mL, or 6 serial dilutions of α-PD-L1 antibody starting from 100 μg/mL were injected at a flow rate of 30 μL/min over the sensor chips coupled with PD-L1 protein. The data sets were analyzed using a model for 1:1 binding.

PD-1/PD-L1 interaction = target: T4, PD-1/PD-L1 interaction (Homo sapiens, UniProt Q9NZQ7); assay type: binding; details: purified ihPDL1 at the tested concentrations
T4 construct: purchased BPS Bioscience
T4 sequence (Q9NZQ7 19-238 limits assumed): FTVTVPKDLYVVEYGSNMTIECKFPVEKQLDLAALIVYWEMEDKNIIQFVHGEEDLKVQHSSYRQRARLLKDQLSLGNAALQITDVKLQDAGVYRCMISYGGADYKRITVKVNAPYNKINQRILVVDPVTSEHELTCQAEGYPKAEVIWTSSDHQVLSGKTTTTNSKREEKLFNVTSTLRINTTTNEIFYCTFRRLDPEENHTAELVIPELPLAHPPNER

H-2D^b = target: T2, H-2D^b; details: MHC allele H-2D^b, cited from earlier work
[4] = target: PD-L1 protein (Abcam, ab130039) (UniProt Q9EP73); test: competitive ELISA: PD-L1-coated plate, displacement of mouse PD-1-biotin
Chain of PD-L1 protein (Abcam, ab130039) (UniProt Q9EP73) (Q9EP73 19-238 limits assumed): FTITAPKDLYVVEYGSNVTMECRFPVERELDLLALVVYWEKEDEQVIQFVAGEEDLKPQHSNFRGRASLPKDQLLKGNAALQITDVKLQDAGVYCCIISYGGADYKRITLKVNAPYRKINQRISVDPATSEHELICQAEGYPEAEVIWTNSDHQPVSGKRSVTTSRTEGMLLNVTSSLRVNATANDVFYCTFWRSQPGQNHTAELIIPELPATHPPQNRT

[5] = target: PD-L1 protein (Abcam, ab130039) (UniProt Q9EP73 19-238); test: as above
Chain of PD-L1 protein (Abcam, ab130039) (UniProt Q9EP73 19-238) (Q9EP73 19-238 limits assumed): as above

[6] = target: T5, PD-L1 on MC38 tumor cells (Mus musculus, UniProt Q9EP73); assay type: cell-based
T5 construct: endogenous in cells; host or cells: MC38 (wild type, IFN-γ stimulated, or PD-L1 shRNA knock-down as negative control)
T5 sequence (Q9EP73 19-290): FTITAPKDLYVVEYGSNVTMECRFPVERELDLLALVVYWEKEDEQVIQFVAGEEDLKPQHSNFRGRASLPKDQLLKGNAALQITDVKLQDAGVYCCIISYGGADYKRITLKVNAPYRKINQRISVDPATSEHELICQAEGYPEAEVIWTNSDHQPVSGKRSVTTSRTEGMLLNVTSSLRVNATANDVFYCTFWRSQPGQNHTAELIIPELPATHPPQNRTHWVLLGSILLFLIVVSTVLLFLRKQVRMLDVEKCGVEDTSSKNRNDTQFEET

PD-L1 [7] = target: T6, PD-L1 (Mus musculus, UniProt Q9EP73); assay type: in vivo; details: MC38, untreated distant tumors
T6 construct: from tissue; host or cells: single-cell suspensions of treated and distant MC38 tumours from C57BL/6 mice
T6 sequence (Q9EP73 19-290): as above

PD-1+ CD8+ T cells = details: purified iPDL1 in comparison to control IgG
Excerpt: (FIG. 7I) PD-1+ CD8+ T cells isolated from VV-treated MC38 tumors were cocultured with MC38 cells in the presence of purified iPDL1 or IgG. IFN-γ+ frequencies of PD-1+ T cells were shown from one of two independent experiments.

[8] = mutant peptide, read-out: IC50 (mutant)
[9] = wild type peptide, read-out: IC50 (Wild Type)

Molecule	IC50 (H-2D^b; [8])	IC50 (H-2D^b; [9])	other results
SIIVFNLV [Pep5, SIIVFNL(V/L)]	–	–	IC50 (H-2K^b; [8]): 8 nM; IC50 (H-2K^b; [9]): 34 nM
ihPDL1: soluble human PD-1 (extracellular) - IgG1 Fc fusion protein, human PD-L1 inhibitor, SEQ ID NO:52	–	–	binding of purified ihPDL1 to PD-L1^+ tumor cells (PD-L1^+ tumor cells): bound to PD-L1^+ tumor cells; T cell activation (IFN-γ level) in MLR [1]: equivalent activity to the commercial anti-PD-L1; concentration that significantly enhanced luc production in the Jurkat effector cells [2]: ≤ 10 ng/mL; binding to PD-L1 (SPR) (PD-L1 [3]): specifically bind to PD-L1; blocking the biotin-PD1 binding to PD-L1-coated wells (PD-1/PD-L1 interaction): equivalent activity to the commercial anti-PD-L1
SAIRSYQDV [Pep8, SAIRSYQ(D/Y)V]	35 nM	755 nM	–
MGGMNRRPI [Pep10, MG(G/V)MNRRPI]	77 nM	841 nM	–
(S/I)MTQHLEPI [Pep7]	78 nM	29 nM	–
anti-PD-L1 antibody control (Biolegend, 124301)	–	–	IC50 [4]: 4.53 nM
MAPIDHTAM [Pep3, MAPIDHT(A/T)M]	30 nM	102 nM	–
AQL(P/A)NDVVL [Pep2]	9 nM	100 nM	–
VSPVNDVDV [Pep9, VSPVND(V/L)DV]	44 nM	18 nM	–
ASMTN(R/M)ELM [Pep4]	2 nM	3 nM	–
FMACNLLLV [Pep11, FM(A/S)CNLLLV]	79 nM	24 nM	–
AALLNSAGL [Pepl, AALLNSA(G/V)L]	3 nM	52 nM	–
SSP(D/Y)SLHYL [Pep6]	211 nM	685 nM	–
B1	–	–	IC50 [5]: 5.63 nM
B2	–	–	binding of purified protein to PD-L1+ tumor cells ([6]; 50 μg/mL, MC38 vs PD-L1-knocked down MC38, anti-IgG Fc staining): able to bind to PD-L1+ tumor cells, but not to PD-L1-knocked down tumor cells; binding of secreted iPDL1 to PD-L1 on tumor cells in cell culture ([6]; MC38 infected with VV-iPDL1/GM at MOI=0.5, anti-IgG Fc staining): bound to PD-L1 on the virus-infected (RFP positive) tumor cells, as well as uninfected (RFP negative) tumor cells; binding of secreted iPDL1 to PD-L1 on CD45− cells in distant tumors (PD-L1 [7]): also bound to PD-L1 on CD45− cells in untreated, distant tumors; IFN-γ+ frequency of PD-1+ CD8+ T cells (PD-1+ CD8+ T cells): higher IFN-γ+ frequency of PD-1+ CD8+ T cells
